Assay results taken from the NIST ThermoML archive (doi:10.1021/acs.jced.6b00430).
Numbers after ± are expanded uncertainties.

Assay: xn = mol fraction of the nth substance listed
Details: 100 kPa, Liquid; for mass density: Vibrating tube method; for electrical conductivity: Alternating current cell with electrodes; for viscosity: Concentric cylinders viscometry

O=[PH](O)O [phosphonic acid] + CN(C)C=O
Details	electrical conductivity [S/m]	mass density [kg/m3]	viscosity [mPa·s]
318.15 K, x1 = 0.421	–	1170.67 ± 10	–
318.15 K, x1 = 0.4479	–	1189.61 ± 10	–
318.15 K, x1 = 0.4707	–	1204.42 ± 10	–
318.15 K, x1 = 0.493	–	1218.59 ± 10	–
318.15 K, x1 = 0.5074	–	1227.51 ± 10	–
318.15 K, x1 = 0.5196	–	1237.92 ± 10	–
318.15 K, x1 = 0.5429	–	1253.45 ± 10	–
318.15 K, x1 = 0.5724	–	1275.06 ± 10	–
318.15 K, x1 = 0.5925	–	1289.1 ± 10	–
318.15 K, x1 = 0.6245	–	1311.81 ± 10	–
318.15 K, x1 = 0.6554	–	1339.01 ± 10	–
318.15 K, x1 = 0.6753	–	1347.93 ± 10	–
318.15 K, x1 = 0.6923	–	1362.29 ± 10	–
318.15 K, x1 = 0.7142	–	1382.56 ± 10	–
318.15 K, x1 = 0.725	–	1385.03 ± 10	–
318.15 K, x1 = 0.7592	–	1416.55 ± 10	–
318.15 K, x1 = 0.7694	–	1427.77 ± 10	–
318.15 K, x1 = 0.7845	–	1434.51 ± 10	–
328.15 K, x1 = 0.0911	–	962.58 ± 10	–
328.15 K, x1 = 0.1181	0.0815 ± 0.0082	–	–
328.15 K, x1 = 0.1365	–	987.46 ± 10	–
328.15 K, x1 = 0.1798	–	1011.93 ± 10	–
328.15 K, x1 = 0.1829	–	1013.72 ± 10	–
328.15 K, x1 = 0.1973	–	–	1.92 ± 0.12
328.15 K, x1 = 0.2293	–	1040.86 ± 10	–
328.15 K, x1 = 0.2507	–	–	2.88 ± 0.17
328.15 K, x1 = 0.291	–	1078.19 ± 10	–
328.15 K, x1 = 0.2984	0.173 ± 0.017	–	4.07 ± 0.25
328.15 K, x1 = 0.3115	–	–	4.29 ± 0.26
328.15 K, x1 = 0.3298	0.183 ± 0.018	1102.77 ± 10	–
328.15 K, x1 = 0.3442	–	1111.65 ± 10	–
328.15 K, x1 = 0.3491	–	–	6.02 ± 0.36
328.15 K, x1 = 0.3712	–	1129.07 ± 10	–
328.15 K, x1 = 0.3937	–	1143.78 ± 10	–
328.15 K, x1 = 0.3968	0.275 ± 0.028	–	8.65 ± 0.52
328.15 K, x1 = 0.3988	–	–	8.5 ± 0.51
328.15 K, x1 = 0.4107	–	1155.04 ± 10	9.62 ± 0.58
328.15 K, x1 = 0.421	–	1161.92 ± 10	–
328.15 K, x1 = 0.4479	0.316 ± 0.032	1180.89 ± 10	12.3 ± 0.7
328.15 K, x1 = 0.4707	–	1195.74 ± 10	–
328.15 K, x1 = 0.493	–	1211.17 ± 10	–
328.15 K, x1 = 0.4968	–	–	16.2 ± 1
328.15 K, x1 = 0.5074	–	1221.28 ± 10	16 ± 1
328.15 K, x1 = 0.5196	–	1229.86 ± 10	–
328.15 K, x1 = 0.5429	–	1246.5 ± 10	–
328.15 K, x1 = 0.5503	–	–	22 ± 1.3
328.15 K, x1 = 0.5724	–	1267.84 ± 10	–
328.15 K, x1 = 0.5761	0.512 ± 0.051	–	24.9 ± 1.5
328.15 K, x1 = 0.5925	–	1282.63 ± 10	–
328.15 K, x1 = 0.5993	–	–	25.5 ± 1.5
328.15 K, x1 = 0.6245	–	1306.4 ± 10	–
328.15 K, x1 = 0.6261	–	–	29.5 ± 1.8
328.15 K, x1 = 0.6316	0.71 ± 0.071	–	30.1 ± 1.8
328.15 K, x1 = 0.6478	–	–	32.2 ± 1.9
328.15 K, x1 = 0.6554	0.802 ± 0.08	1330.73 ± 10	32 ± 1.9
328.15 K, x1 = 0.682	1.07 ± 0.11	–	34.4 ± 2.1
328.15 K, x1 = 0.7142	–	1375.29 ± 10	37.1 ± 2.2
328.15 K, x1 = 0.725	–	1383.85 ± 10	–
328.15 K, x1 = 0.7592	–	1411.1 ± 10	–
328.15 K, x1 = 0.7694	1.77 ± 0.18	1419.7 ± 10	39.8 ± 2.4
328.15 K, x1 = 0.7832	1.91 ± 0.19	–	40.5 ± 2.4
328.15 K, x1 = 0.7845	–	1430.74 ± 10	–
338.15 K, x1 = 0.2984	0.212 ± 0.021	–	–
338.15 K, x1 = 0.3298	0.226 ± 0.023	–	–
338.15 K, x1 = 0.3968	0.351 ± 0.035	–	–
338.15 K, x1 = 0.4479	0.356 ± 0.036	–	–
338.15 K, x1 = 0.5761	0.642 ± 0.064	–	–
338.15 K, x1 = 0.6316	0.891 ± 0.089	–	–
